The nature of data set [1]: Oral bioavailability in rat. The following applies: in vivo. It is filed as ADME, organism-based.
Data set [2] is described as follows: Oral bioavailability in dog. It is filed as ADME, organism-based, Canis lupus familiaris. The following applies: in vivo.

Take `COc1cc2c(cc1Cc1cccc(Cl)c1F)c(=O)c(C(=O)O)cn2[C@H](CO)C(C)C` [ELVITEGRAVIR]: the bioavailability in data set [1] is 34%; in data set [2], 30%.

(Values after ChEMBL document CHEMBL1156072, “Twenty-six years of anti-HIV drug discovery: where do we stand and where do we go?” (J Med Chem, 2010).)
